Experimental data: PubChem BioAssay AID1508612

Test: passive permeability, PAMPA, ADME assay (AID 1508612)
Details: pH 7.4, 30.0 min, 50.0 µM

Compound	Papp
CN(C)CCOc1ccc(C(=C(CCCl)c2ccccc2)c2ccccc2)cc1	< 1 ×10⁻⁶ cm/s
Cc1cc(-c2ccc(C)c(S(=O)(=O)NCC3CCN(Cc4ccc(F)cc4)CC3)c2)on1	> 1000 ×10⁻⁶ cm/s
COC(=O)[C@]12CCC(C)(C)C[C@@H]1[C@@H]1C(=O)C=C3[C@@]4(C)C=C(C#N)C(=O)C(C)(C)[C@@H]4CC[C@@]3(C)[C@]1(C)CC2	16.2 ×10⁻⁶ cm/s
Cc1ccc(S(=O)(=O)Nc2ccc(C(=O)Nc3nc(-c4ccc(Cl)cc4)cs3)cc2)cc1	11 ×10⁻⁶ cm/s
CC(=O)c1ccc(N2CCN(S(=O)(=O)c3ccc4[nH]c(=O)[nH]c4c3)CC2)cc1	< 1 ×10⁻⁶ cm/s
NC(=O)C1CCN(c2nc(-c3ccccc3C(F)(F)F)cs2)CC1	544 ×10⁻⁶ cm/s
CCOc1ccc(CCNC(=O)c2cc3cnccc3n2Cc2cccc(C)n2)cc1OCC	7.02 ×10⁻⁶ cm/s
OCc1ccc(-c2ccc(-c3ccc(CO)s3)o2)s1	956 ×10⁻⁶ cm/s
CCCCCn1c(=O)[nH]c2cc(C(=O)NCCCN3CCCCC3)ccc2c1=O	27.5 ×10⁻⁶ cm/s
CCOC(=O)C1CCN(c2ncc(-c3ccc4c(c3)OCCCO4)s2)CC1	> 1000 ×10⁻⁶ cm/s
CCN1CCN(C(=O)CCCn2nc(C)c3c(C)n(-c4ccc(C)cc4)nc3c2=O)CC1	175 ×10⁻⁶ cm/s
COc1ccc(CN2CCc3nc(N4CCN(c5ccc(F)cc5)CC4)ncc3C2)c(OC)c1OC	> 1000 ×10⁻⁶ cm/s
Cc1cnc(-c2ccccc2C(C)C)nc1NCC1CCN(c2cccnc2)C1 (stereo not drawn)	> 1000 ×10⁻⁶ cm/s
NC(=O)Nc1cc(-c2ccc(CN3CCOCC3)cc2)sc1C(N)=O	40.3 ×10⁻⁶ cm/s
O=C1CCCC2=C1C(c1ccncc1Br)N=C(Nc1nc3ccccc3o1)N2 (stereo not drawn)	> 1000 ×10⁻⁶ cm/s
O=C(NC1CCCc2c1cnn2-c1ccc(O)cc1)c1ccccn1 (stereo not drawn)	587 ×10⁻⁶ cm/s
COc1cc2nccc(Oc3ccc(NC(=O)Nc4cc(C)on4)c(Cl)c3)c2cc1OC	328 ×10⁻⁶ cm/s
COc1ccc(-c2c(-c3cc(C(=O)O)ccn3)ncn2C)cc1	3.06 ×10⁻⁶ cm/s
O=C1Nc2ccc(Cl)cc2/C1=C\c1cc(Cl)c(O)c(Cl)c1	69.5 ×10⁻⁶ cm/s
CN(C)CCCN1c2ccc(O)cc2Sc2ccc(Cl)cc21	> 1000 ×10⁻⁶ cm/s
CC(=O)c1c(C)n(-c2ccccc2)c2ccc(O)cc12	779 ×10⁻⁶ cm/s
COc1c2c(c3c(c1CCC(=O)O)OC(C)(C)C=C3)OC(C)(C)C=C2	43.9 ×10⁻⁶ cm/s

Compound	Papp
COc1ccc(NC(=O)c2c(C)cccc2C)cc1[S+](=O)([O-])N(C)C	196 ×10⁻⁶ cm/s
COc1cccc(CNc2ccc(S(=O)(=O)Nc3nc4ccccc4[nH]3)cc2)c1O	30.8 ×10⁻⁶ cm/s
CCOC(=O)N1CCN(Cc2nc3c(c(=O)n(C)c(=O)n3C)n2Cc2ccc(F)cc2)CC1	550 ×10⁻⁶ cm/s
CCn1c(C(=O)NCCc2ccc(OC)cc2)cc2sccc21	721 ×10⁻⁶ cm/s
CCCCN(CC)CCNC(=O)c1cc2c(-c3ccc(Cl)cc3)nn(C)c2s1	> 1000 ×10⁻⁶ cm/s
CC1CCN(S(=O)(=O)c2ccc3c(c2)C(C)(C)C(=O)N3CC(=O)NCc2ccco2)CC1	584 ×10⁻⁶ cm/s
CCOc1ccc(CCNC(=O)c2cc3ccncc3n2Cc2cccc(C)n2)cc1OCC	3.77 ×10⁻⁶ cm/s
COc1ccc(-c2ccc3ncc(Nc4ccncc4)n3n2)cc1OC	763 ×10⁻⁶ cm/s
COc1ccnc(NC(=S)N2CCN(c3cccc(C(F)(F)F)c3)CC2)c1	417 ×10⁻⁶ cm/s
Fc1cccc(CN2CCNc3cc(Nc4ccccc4)ncc3C2)c1	< 1 ×10⁻⁶ cm/s
Cc1ccc(C2=NN=C(NC(=O)CSc3nncn3C)SC2)cc1	147 ×10⁻⁶ cm/s
CC(C)Oc1cccc(-c2csc(N3CCC(C(N)=O)CC3)n2)c1	> 1000 ×10⁻⁶ cm/s
c1cc(-c2cc(-c3ccncc3)c3cncn3c2)c2[nH]ncc2c1	25.1 ×10⁻⁶ cm/s
O=C(NCc1ccc(S(=O)(=O)c2cccc(C(F)(F)F)c2)cc1)c1cnc2[nH]ncc2c1	797 ×10⁻⁶ cm/s
Cc1ccc(-c2cc(C(=O)NCc3cnn(C)c3)c3cc(Br)ccc3n2)cc1	24.2 ×10⁻⁶ cm/s
O=C(Nc1nc(-c2ccccc2)cs1)c1ccncc1NS(=O)(=O)c1ccc(F)cc1F	798 ×10⁻⁶ cm/s
Cn1nnnc1Sc1ncnc2scc(-c3cccc(S(C)(=O)=O)c3)c12	93.9 ×10⁻⁶ cm/s
c1cc(-c2cc(-c3ccncc3)c3cncn3c2)c2cc[nH]c2c1	236 ×10⁻⁶ cm/s
CCOc1ccc(C2C(C(=O)Nc3ccccc3OC)=C(C)Nc3c(C(=O)Nc4cccc(C)c4)cnn32)cc1 (stereo not drawn)	871 ×10⁻⁶ cm/s
O=C(NCc1ccncc1)c1nc(-c2cccnc2)c2cnccn12	6.35 ×10⁻⁶ cm/s
C[S+](=O)([O-])c1ccc(-c2nc(C(=O)N3CCOCC3)n3ccccc23)cc1	180 ×10⁻⁶ cm/s
O=C(NCCc1nc2ccccc2n1CCO)C1CCCCC1	85.4 ×10⁻⁶ cm/s

Compound	Papp
COc1ccc(C(=O)NC2CCN(c3cnn(CC4CC4)c(=O)c3)CC2)c(OC)n1	550 ×10⁻⁶ cm/s
CC(C)c1ccccc1-c1ncc(F)c(NCc2ccc(-c3cccnc3)s2)n1	> 1000 ×10⁻⁶ cm/s
CC(=O)Nc1cccc(-c2csc(Nc3cc(C)ccn3)n2)c1	> 1000 ×10⁻⁶ cm/s
Cc1[nH]c2ccccc2c1CN1CCN(c2ccccn2)CC1	> 1000 ×10⁻⁶ cm/s
NC(=O)C1CCN(c2ncc(-c3ccc4c(c3)OCCO4)s2)CC1	710 ×10⁻⁶ cm/s
Cc1cc(C)c2nc(-c3ccccn3)cc(C(=O)Nc3ccc(S(=O)(=O)Nc4onc(C)c4C)cc3)c2c1	240 ×10⁻⁶ cm/s
Cc1ccc(N2CCN(c3cnn(-c4nc5ccccc5s4)c(=O)c3Cl)CC2C)cc1 (stereo not drawn)	317 ×10⁻⁶ cm/s
CC1Oc2cc3c(-c4c(O)cc(O)c5c(O)c6c(cc45)OC(C)C(C)C6=O)c(O)cc(O)c3c(O)c2C(=O)C1C (stereo not drawn)	8.5 ×10⁻⁶ cm/s
NC(=O)C1CCN(c2nnc(-c3ccc(Br)cc3)s2)CC1	525 ×10⁻⁶ cm/s
O=C(NC1CCCc2c1cnn2-c1ccc(F)cc1F)c1ccccc1 (stereo not drawn)	> 1000 ×10⁻⁶ cm/s
NC(=O)C1CCN(c2nc(-c3cccc([N+](=O)[O-])c3)cs2)CC1	568 ×10⁻⁶ cm/s
CN1CCN(c2ccc(-c3cccc(CN4CCOCC4)c3)cc2NC(=O)c2c[nH]c(=O)cc2C(F)(F)F)CC1	3.88 ×10⁻⁶ cm/s
CC1(C)CNc2cc(NC(=O)c3cccnc3NCc3ccncc3)ccc21	> 1000 ×10⁻⁶ cm/s
COc1cc(-c2nc(Nc3ccc(F)c(F)c3)c3ccccc3n2)ccn1	22.5 ×10⁻⁶ cm/s
C[C@H]1CN(C(=O)c2nn(C)c3ccccc23)C[C@@H]1c1nc(-c2ccncc2)no1	907 ×10⁻⁶ cm/s
O=C(NCc1ccc(N2CCCC2)nc1)c1cc(Cl)ccc1O	> 1000 ×10⁻⁶ cm/s
CC(C)(C)c1ccc(-n2cnc3cc(C(=O)N4CCCCC4)ccc32)cc1	969 ×10⁻⁶ cm/s
CN(C)C(=O)c1cccc(-c2csc(N3CCC(C(N)=O)CC3)n2)c1	30.5 ×10⁻⁶ cm/s
CCOc1ccc(CCNC(=O)c2cc3cnccc3n2Cc2cccc(C)c2)cc1OCC	184 ×10⁻⁶ cm/s
CC(=O)c1c(C)c(C(=O)Nc2cccc([S+](=O)([O-])N(C)C)c2)n(C)c1C	295 ×10⁻⁶ cm/s
Cc1cccc(NCc2ccc(O)c3ncccc23)c1	< 1 ×10⁻⁶ cm/s
CCOC(=O)c1cnc2ccc(-c3cncc(NS(=O)(=O)c4ccccc4)c3)cn12	705 ×10⁻⁶ cm/s

Compound	Papp
O=S(=O)(Nc1nccs1)c1ccc(NCc2cccc(O)c2)cc1	1.15 ×10⁻⁶ cm/s
CCCCCCOc1ccc(OC(=O)c2ccncc2)cc1	600 ×10⁻⁶ cm/s
Clc1ccc(C2(c3ccc(-c4cn[nH]c4)cc3)CCNCC2)cc1	40.5 ×10⁻⁶ cm/s
C1CCc2nc3c(nc2C1)CCCC3	257 ×10⁻⁶ cm/s
Cn1c2ccccc2c(=O)c2c(=O)n(-c3ccccc3)c(C3CCCCC3)nc21	440 ×10⁻⁶ cm/s
Cc1ccc(CCNC(=O)C2CCCN(C(=O)c3cc4sccc4n3C)C2)cc1 (stereo not drawn)	> 1000 ×10⁻⁶ cm/s
Cc1ccc(S(=O)(=O)NCc2ccccc2)cc1	537 ×10⁻⁶ cm/s
COc1ccc(NC(=O)c2c(C)cccc2C)cc1S(=O)(=O)Nc1ccc(Br)cc1	581 ×10⁻⁶ cm/s
CCOC(=O)[C@H]1O[C@H]1C(=O)N[C@@H](CC(C)C)C(=O)NCCC(C)C	89 ×10⁻⁶ cm/s
COc1cccc(NC(=O)c2cccc3c(=O)c4c([nH]c23)CCCC4)c1	> 1000 ×10⁻⁶ cm/s
O=C(c1ccc2c(c1)ncn2-c1ccc(Cl)cc1)N1CCCCC1	> 1000 ×10⁻⁶ cm/s
Cc1cccc(-n2cnc3cc(C(=O)N4CCCC(C(C)C)C4)ccc32)c1 (stereo not drawn)	> 1000 ×10⁻⁶ cm/s
O=C(c1ccco1)N1CCN(c2nc(-c3ccc(Br)cc3)cs2)CC1	4.09 ×10⁻⁶ cm/s
O=C(Cc1ccc(Cl)c(Cl)c1)Nc1ccc(S(=O)(=O)Nc2ccon2)cc1	9.17 ×10⁻⁶ cm/s
O=C(Nc1ccc(Cl)cc1)Nc1ccc(Cl)c(Cl)c1	240 ×10⁻⁶ cm/s
Cc1ccc(S(=O)(=O)Nc2cc3c(cc2C(=O)Nc2nc(-c4ccccc4)cs2)OCO3)cc1	19.3 ×10⁻⁶ cm/s
NC(=O)N1CCN(c2nc(-c3ccc(Br)cc3)cs2)CC1	958 ×10⁻⁶ cm/s
Fc1cnc(-c2ccccc2C(F)F)nc1NCC1CCN(c2cnccn2)CC1	> 1000 ×10⁻⁶ cm/s
COc1ccc(CNC(=O)c2cnc3ccccc3n2)cc1	> 1000 ×10⁻⁶ cm/s
COc1cccc(CNc2ccc(S(=O)(=O)Nc3cccc(N4CCNCC4)c3)cc2)c1O	16 ×10⁻⁶ cm/s
COc1nccc(-c2nc(Nc3ccc(F)c(F)c3)c3ccccc3n2)c1OC	> 1000 ×10⁻⁶ cm/s
Cc1ccc(S(=O)(=O)Nc2cc(C(=O)Nc3nc(-c4ccccc4)cs3)ccn2)cc1	259 ×10⁻⁶ cm/s

Compound	Papp
CCOC(=O)c1c[nH]c2c3c(ccc2c1=O)CCCC3	434 ×10⁻⁶ cm/s
COc1ccc(NC(=O)CCCc2nnc3n(CCC(C)C)c(=O)c4sccc4n23)cc1Cl	> 1000 ×10⁻⁶ cm/s
COc1ccc(-c2nc3sc(CCNC(=O)C(C)(C)C)c(C)n3n2)cc1	214 ×10⁻⁶ cm/s
CN1C(=O)CN=C(c2ccc[nH]2)c2cc(Cl)ccc21	714 ×10⁻⁶ cm/s
CC1CC(C)(C)N(C(=O)CN2C(=O)c3ccccc3C2=O)c2ccccc21 (stereo not drawn)	> 1000 ×10⁻⁶ cm/s
CCCc1cc(=O)oc2c3c(c4c(c12)OC(C)(C)C=C4)OC(C)C(C)C3O (stereo not drawn)	> 1000 ×10⁻⁶ cm/s
COc1ccc(C2c3c(oc4ccc(C)cc4c3=O)C(=O)N2CCCN2CCOCC2)cc1OC (stereo not drawn)	403 ×10⁻⁶ cm/s
Cc1ccc(S(=O)(=O)Nc2ccccc2C(=O)Nc2ncc(-c3ccccc3)o2)cc1	303 ×10⁻⁶ cm/s
CC(=O)Nc1nc(C)c(-c2ccc(Cl)c(S(=O)(=O)NCCO)c2)s1	12.1 ×10⁻⁶ cm/s
COc1cccc(O)c1CNc1ccc(S(=O)(=O)Nc2nccs2)cc1	5.16 ×10⁻⁶ cm/s
CCc1ccc(NC(=O)c2[nH]c(C)c(C(C)=O)c2C)cc1[S+](=O)([O-])N1CCCCCC1	227 ×10⁻⁶ cm/s
COc1ccccc1CNS(=O)(=O)c1ccc(-c2cnc(C3CC3)o2)cc1	> 1000 ×10⁻⁶ cm/s
Nc1nc2c(s1)C(c1ccc(Br)cc1)CC(=O)N2 (stereo not drawn)	297 ×10⁻⁶ cm/s
Cc1ccnc(NC(=S)N2CCN(c3ccccc3C(F)(F)F)CC2)c1	726 ×10⁻⁶ cm/s
Fc1ccc(Nc2nc(-c3ccncc3F)nc3ccccc23)cc1F	325 ×10⁻⁶ cm/s
O=S(=O)(Nc1nccs1)c1ccc(NCc2cccc(F)c2O)cc1	2.11 ×10⁻⁶ cm/s
CCN(CC)CCOc1ccc2c(=O)c3ccc(Cl)cc3n(CCN(CC)CC)c2c1	> 1000 ×10⁻⁶ cm/s
CCOc1ccc(CCNC(=O)c2ccc3ccccc3n2)cc1OCC	> 1000 ×10⁻⁶ cm/s
C=C1C(=O)OC2C1CCC(C)C1(O)C=CC(=O)C21C (stereo not drawn)	64.6 ×10⁻⁶ cm/s
O=C(c1ccc(C(=O)N2CCC(N3CCCC3)CC2)c(Nc2ccccc2)c1)N1CCC(N2CCCC2)CC1	7.61 ×10⁻⁶ cm/s
